# Values quoted from earlier work, collected in patent US20160231323A1, “PROTECTION OF TCR SIGNALING CHAINS IN CANCER PATIENTS AND ENHANCEMENT OF CAR-T CELL THERAPY” (Batu Biologics, Inc., priority 2015, published 2016).
# Legend:
# [1] = test system: sepsis-induced immune suppression; conditions: animals undergoing experimental sepsis
# [2] = test system: plasma CRP; conditions: 1000 mg/day for 2 months, healthy nonsmokers, versus vitamin E or placebo
# [3] = test system: HIF-1 alpha; conditions: results in suppressed angiogenic activity
# [4] = test system: proliferating tumor endothelial cells
# [5] = test system: tumors; conditions: paradoxical oxidative mechanism
# [6] = test system: CD8(+) effector and effector memory T cells; conditions: mice given vitamin C treated DC loaded with tumor lysate
# [7] = test system: PGE 2; conditions: several animal models
# [8] = test system: constitutively activated neutrophils
# [9] = test system: markers of oxidative stress; conditions: smokers
# [10] = test system: Kaposi Sarcoma; conditions: oral administration
# [11] = test system: TCR-ζ; conditions: addition to co-incubation of cancer patient neutrophils with healthy lymphocytes
# [12] = test system: IFN-[…] and IL-2 production; conditions: daily dose of 750 mg for 2 weeks, Duke's C and D colorectal cancer
compound,measurement,setting,value
O=C1O[C@H]([C@@H](O)CO)C(O)=C1O [ascorbic acid],immune suppression in experimental sepsis,[1],blocked immune suppression
same,plasma CRP levels,[2],statistically significant decrease
same,tumor expression of HIF-1 alpha,[3],reduce tumor expression of HIF-1 alpha
same,effect on proliferating tumor endothelial cells,[4],Direct suppression
same,effect on tumors,[5],direct killing effect
same,frequency of effector and effector memory T cells,[6]; versus control DC,higher frequency
same,ex vivo killing of tumor cells by the T cells,[6]; versus controls,increased ex vivo killing effect
COc1ccc2c(c1)c(CC(=O)O)c(C)n2C(=O)c1ccc(Cl)cc1 [indomethacin],metastatic progression,[7],significantly impedes metastatic progession
CC(=O)N[C@@H](CS)C(=O)O [n-acetylcysteine],immune suppression in experimental sepsis,[1],blocked immune suppression
same,clinical effect in sepsis,[8]; as a monotherapy,little clinical effect
same,constitutively activated neutrophils in sepsis patients,[8]; therapeutic administration,suppression of the constitutively activated neutrophils
same,markers of oxidative stress,[9],suppression of markers of oxidative stress
same,angiogenesis,[10],blocks angiogenesis
same,growth of Kaposi Sarcoma,[10],suppresses growth of Kaposi Sarcoma
catalase,TCR-ζ downregulation,[11],suppressed TCR-ζ downregulation
vitamin E,IFN-[…] and IL-2 production,[12],restoration of IFN-[…] and IL-2 production
